Experimental findings from US8003649B2 (AstraZeneca AB, priority 2007, dated 2011) are described below.

For this assay, the target named is T1, Androgen Receptor (AR) (Homo sapiens, UniProt P10275, T878A).
T1 construct: cell based immuno-fluorescence assay using the LNCaP prostate epithelial cell line; endogenous in cells; host or cells: LNCaP clone FGC (ATCC CRL-1740)
T1 sequence (P10275 1-920 T878A): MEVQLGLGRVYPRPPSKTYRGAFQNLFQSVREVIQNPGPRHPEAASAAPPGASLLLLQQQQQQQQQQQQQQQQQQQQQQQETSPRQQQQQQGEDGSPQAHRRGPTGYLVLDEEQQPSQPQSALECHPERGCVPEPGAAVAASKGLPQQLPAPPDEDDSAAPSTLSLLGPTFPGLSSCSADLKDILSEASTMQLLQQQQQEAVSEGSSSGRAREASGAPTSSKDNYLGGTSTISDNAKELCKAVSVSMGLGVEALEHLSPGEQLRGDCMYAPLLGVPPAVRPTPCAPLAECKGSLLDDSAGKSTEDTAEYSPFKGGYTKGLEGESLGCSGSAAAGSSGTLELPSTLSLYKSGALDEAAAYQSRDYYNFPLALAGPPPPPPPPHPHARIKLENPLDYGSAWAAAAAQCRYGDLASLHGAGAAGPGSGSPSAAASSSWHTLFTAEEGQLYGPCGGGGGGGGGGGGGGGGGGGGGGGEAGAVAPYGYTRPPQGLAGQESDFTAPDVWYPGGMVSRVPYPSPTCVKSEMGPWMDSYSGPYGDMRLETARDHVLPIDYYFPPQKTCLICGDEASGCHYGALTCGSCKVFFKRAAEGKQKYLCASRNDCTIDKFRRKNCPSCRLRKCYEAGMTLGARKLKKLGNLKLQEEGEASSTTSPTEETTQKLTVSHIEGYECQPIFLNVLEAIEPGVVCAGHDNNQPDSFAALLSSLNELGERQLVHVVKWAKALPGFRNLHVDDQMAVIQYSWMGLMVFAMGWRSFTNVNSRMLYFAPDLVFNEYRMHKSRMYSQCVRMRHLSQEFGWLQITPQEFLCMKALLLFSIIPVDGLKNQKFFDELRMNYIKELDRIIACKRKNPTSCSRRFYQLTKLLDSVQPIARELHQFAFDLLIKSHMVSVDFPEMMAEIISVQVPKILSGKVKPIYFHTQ
Briefly: LNCaP Androgen Receptor Down-regulation Cell Assay (immunofluorescence end point). It counts as cell-based. The conditions noted are these: LNCaP prostate carcinoma cells, compound incubation 20-22 hours, 50% reduction of the AR signal; read-out: Androgen Receptor Down-regulation Assay (a) IC50/μM. In short, it runs like this: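 LNCaP cells in medium with 5% charcoal-stripped FBS were plated overnight, then treated with a compound dilution series for 20-22 h at 37° C. After fixation, permeabilisation and immunostaining, AR-associated green fluorescence was quantified by laser-scanning microplate cytometry; AR down-regulation expressed as IC50 from fitted dose-response curves.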
With `COc1ccc(CN2CCN(c3ccc4nnc(C(F)(F)F)n4c3)CC2)cc1` [Example 192, 6-[4-[(4-methoxyphenyl)methyl]piperazin-1-yl]-3-(trifluoromethyl)-[1,2,4]triazolo[4,3-a]pyridine], the DC50 is 8.7 µM.

Turning to `FC(F)(F)c1nnc2ccc(N3CC4CN(Cc5ccncc5)CC4C3)nn12` (stereo not drawn) [Example 193, 6-[2-(pyridin-4-ylmethyl)-1,3,3a,4,6,6a-hexahydropyrrolo[3,4-c]pyrrol-5-yl]-3-(trifluoromethyl)-[1,2,4]triazolo[4,3-b]pyridazine], the DC50 was found to be 2 µM. The same measure for `COc1cccc(CN2CC3CN(c4ccc5nnc(C(F)(F)F)n5n4)CC3C2)c1` (stereo not drawn) [Example 194, 6-[2-[(3-methoxyphenyl)methyl]-1,3,3a,4,6,6a-hexahydropyrrolo[3,4-c]pyrrol-5-yl]-3-(trifluoromethyl)-[1,2,4]triazolo[4,3-b]pyridazine]: 2.4 µM. The same measure for `FC(F)(F)c1cccc(CN2CC3CN(c4ccc5nnc(C(F)(F)F)n5n4)CC3C2)c1` (stereo not drawn) [Example 196, 3-(trifluoromethyl)-6-[2-[[3-(trifluoromethyl)phenyl]methyl]-1,3,3a,4,6,6a-hexahydropyrrolo[3,4-c]pyrrol-5-yl]-[1,2,4]triazolo[4,3-b]pyridazine]: 1.5 µM. Regarding `N#Cc1cccc(CN2CC3CN(c4ccc5nnc(C(F)(F)F)n5n4)CC3C2)c1` (stereo not drawn) [Example 197, 3-[[5-[3-(trifluoromethyl)-[1,2,4]triazolo[4,3-b]pyridazin-6-yl]-1,3,3a,4,6,6a-hexahydropyrrolo[3,4-c]pyrrol-2-yl]methyl]benzonitrile], the DC50 stood at 0.82 µM. With `FC(F)(F)c1ccc(CN2CC3CN(c4ccc5nnc(C(F)(F)F)n5n4)CC3C2)cc1` (stereo not drawn) [Example 199, 3-(trifluoromethyl)-6-[2-[[4-(trifluoromethyl)phenyl]methyl]-1,3,3a,4,6,6a-hexahydropyrrolo[3,4-c]pyrrol-5-yl]-[1,2,4]triazolo[4,3-b]pyridazine] the figure was 1.9 µM. Regarding `FC(F)(F)c1ccc(CN2CC3CN(c4ccc5nnc(C(F)(F)F)n5n4)CC3C2)cn1` (stereo not drawn) [Example 201, 3-(trifluoromethyl)-6-[2-[[6-(trifluoromethyl)pyridin-3-yl]methyl]-1,3,3a,4,6,6a-hexahydropyrrolo[3,4-c]pyrrol-5-yl]-[1,2,4]triazolo[4,3-b]pyridazine], the DC50 came out at 1.7 µM.

`Fc1ccc(CN2CC3CN(c4ccc5nnc(C(F)(F)F)n5n4)CC3C2)cc1` (stereo not drawn) [Example 203, 6-[2-[(4-fluorophenyl)methyl]-1,3,3a,4,6,6a-hexahydropyrrolo[3,4-c]pyrrol-5-yl]-3-(trifluoromethyl)-[1,2,4]triazolo[4,3-b]pyridazine]: the DC50 was 1.7 µM.

On to `FC(F)(F)c1nnc2ccc(N3CC4CN(Cc5ccc(Cl)cc5)CC4C3)nn12` (stereo not drawn) [Example 204, 6-[2-[(4-chlorophenyl)methyl]-1,3,3a,4,6,6a-hexahydropyrrolo[3,4-c]pyrrol-5-yl]-3-(trifluoromethyl)-[1,2,4]triazolo[4,3-b]pyridazine], for which the DC50 came out at 1.5 µM. Regarding `N#Cc1ccc(CN2CC3CN(c4ccc5nnc(C(F)(F)F)n5n4)CC3C2)cc1` (stereo not drawn) [Example 205, 4-[[5-[3-(trifluoromethyl)-[1,2,4]triazolo[4,3-b]pyridazin-6-yl]-1,3,3a,4,6,6a-hexahydropyrrolo[3,4-c]pyrrol-2-yl]methyl]benzonitrile], the DC50 was 0.53 µM.

On to `FC(F)(F)c1nnc2ccc(N3CC4CN(Cc5cccnc5)CC4C3)nn12` (stereo not drawn) [Example 206, 6-[2-(pyridin-3-ylmethyl)-1,3,3a,4,6,6a-hexahydropyrrolo[3,4-c]pyrrol-5-yl]-3-(trifluoromethyl)-[1,2,4]triazolo[4,3-b]pyridazine], for which the DC50 was determined as 2 µM. With `COc1cccc(C(=O)N2CC3CN(c4ccc5nnc(C(F)(F)F)n5n4)CC3C2)c1` (stereo not drawn) [Example 207, (3-methoxyphenyl)-[2-[3-(trifluoromethyl)-[1,2,4]triazolo[4,3-b]pyridazin-6-yl]-1,3,3a,4,6,6a-hexahydropyrrolo[3,4-c]pyrrol-5-yl]methanone] the figure was 7.6 µM. As to `FC(F)(F)c1nnc2ccc(N3CC4CN(Cc5ccccc5)CC4C3)nn12` (stereo not drawn) [Example 210, 6-(5-benzyl-1,3,3a,4,6,6a-hexahydropyrrolo[3,4-c]pyrrol-2-yl)-3-(trifluoromethyl)-[1,2,4]triazolo[3,4-f]pyridazine], the DC50 came to 1.8 µM. The same measure for `CC(C)(C)OC(=O)N1CC2CN(c3ccc4nnc(C(F)(F)F)n4n3)CC2C1` (stereo not drawn) [Example 211, tert-butyl 5-(3-(trifluoromethyl)-[1,2,4]triazolo[4,3-b]pyridazin-6-yl)hexahydropyrrolo[3,4-c]pyrrole-2(1H)-carboxylate]: 8.2 µM; for `Nc1ccc(CN2CCN(c3ccc4nnc(C(F)(F)F)n4n3)CC2)cc1` [Example 212, 4-((4-(3-(trifluoromethyl)-[1,2,4]triazolo[4,3-b]pyridazin-6-yl)piperazin-1-yl)methyl)aniline]: 3.7 µM; for `O=C(Nc1ccc(F)cc1)N1CC2CN(c3ccc4nnc(C(F)(F)F)n4n3)CC2C1` (stereo not drawn) [Example 213, N-(4-fluorophenyl)-2-[3-(trifluoromethyl)-[1,2,4]triazolo[3,4-f]pyridazin-6-yl]-1,3,3a,4,6,6a-hexahydropyrrolo[3,4-c]pyrrole-5-carboxamide]: 4.5 µM. As to `CCS(=O)(=O)N1CC2CN(c3ccc4nnc(C(F)(F)F)n4n3)CC2C1` (stereo not drawn) [Example 215, 6-(5-ethylsulfonyl-1,3,3a,4,6,6a-hexahydropyrrolo[3,4-c]pyrrol-2-yl)-3-(trifluoromethyl)-[1,2,4]triazolo[3,4-f]pyridazine], the DC50 stood at 7.4 µM. In the case of `C[C@@H]1CN(Cc2ccccc2)[C@@H](C)CN1c1ccc2nnc(C(F)(F)F)n2n1` [Example 216, 6-[(2R,5S)-4-benzyl-2,5-dimethylpiperazin-1-yl]-3-(trifluoromethyl)[1,2,4]triazolo[4,3-b]pyridazine], the DC50 was determined as 6.8 µM.

As to `C[C@@H]1CN(Cc2cccnc2)[C@@H](C)CN1c1ccc2nnc(C(F)(F)F)n2n1` [Example 217, 6-[(2R,5S)-2,5-dimethyl-4-(pyridin-3-ylmethyl)piperazin-1-yl]-3-(trifluoromethyl)[1,2,4]triazolo[4,3-b]pyridazine], the DC50 was found to be 3.7 µM.

Regarding `CC1CN(c2ccc3nnc(C(F)(F)F)n3n2)C(C)CN1Cc1ccc(C#N)cc1` (stereo not drawn) [Example 218], the DC50 is greater than 7.3 µM. With `CC1CN(c2ccc3nnc(C(F)(F)F)n3n2)C(C)CN1Cc1ccc(F)c(F)c1` (stereo not drawn) [Example 219] the figure was 3.5 µM. `CC1CN(c2ccc3nnc(C(F)(F)F)n3n2)C(C)CN1Cc1cc(F)cc(F)c1` (stereo not drawn) [Example 220]: the DC50 was 3.6 µM. The same measure for `CC1CN(c2ccc3nnc(C(F)(F)F)n3n2)C(C)CN1Cc1ccc(F)c(C#N)c1` (stereo not drawn) [Example 222]: 2.6 µM.

For `C[C@@H]1CN(c2ccc3nnc(C(F)(F)F)n3n2)[C@@H](C)CN1Cc1cccnc1` [Example 223, 6-[(2S,5R)-2,5-dimethyl-4-(pyridin-3-ylmethyl)piperazin-1-yl]-3-(trifluoromethyl)[1,2,4]triazolo[4,3-b]pyridazine], the DC50 is 4.7 µM. Take `Fc1ccccc1CCN1CCN(c2ccc3nnc(C(F)(F)F)n3n2)CC1` [Example 229, 6-[4-[2-(2-fluorophenyl)ethyl]piperazin-1-yl]-3-(trifluoromethyl)[1,2,4]triazolo[4,3-b]pyridazine]: the DC50 is 1.9 µM.

Take `Fc1ccc(CCN2CCN(c3ccc4nnc(C(F)(F)F)n4n3)CC2)cc1` [Example 230]: the DC50 came out at 2.1 µM. The same measure for `FC(F)(F)c1nnc2ccc(N3CCN(CCc4ccc(Cl)cc4)CC3)nn12` [Example 231]: 2.1 µM. On to `FC(F)(F)c1nnc2ccc(N3CCN(CCc4ccccc4Cl)CC3)nn12` [Example 232], for which the DC50 came out at 3.6 µM. The same measure for `FC(F)(F)c1nnc2ccc(N3CCN(CCc4cccc(Cl)c4)CC3)nn12` [Example 233]: 1.5 µM; for `Fc1cccc(CCN2CCN(c3ccc4nnc(C(F)(F)F)n4n3)CC2)c1` [Example 234]: 2 µM. The same measure for `N#Cc1ccc(CCN2CCN(c3ccc4nnc(C(F)(F)F)n4n3)CC2)cc1` [Example 235]: 1.9 µM; for `N#Cc1ccc(CN2CCN(c3ccc4nnc(C(F)F)n4n3)CC2)cc1` [Example 237]: 5.3 µM; for `N#Cc1cccc(CN2CCN(c3ccc4nnc(C(F)F)n4n3)CC2)c1` [Example 238]: 5 µM.
